# Measured values reported in PubChem BioAssay AID977622 (Broad Institute, 2014).
# Inconclusive results are not listed. Active and inactive are the calls of the source.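 Rule for the calls: active = Green signal of the normal strain falls at least twice as much as red signal of the resistant mutant, with overall culture growth loss under a set limit; inconclusive = no clear call, values can overlap the other calls; inactive = the rest.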
# Test system: E. coli WT ribosome GFP fluorescence, mixed culture, 24 h
# Assay: growth inhibition of wild-type GFP E. coli, dose response, h38 mutant RFP, cherry-pick (AID 977622)
# [1] = E. coli mixed culture, 24 h, measured here: total growth OD600
Compound,AC50 [1],AC50
Cc1cccc(N2CCN(Cc3nc(-c4ccc(F)cc4F)oc3C)CC2)n1,> 100 µM,–
CC(=O)Nc1cccc2c1Cc1cc([N+](=O)[O-])ccc1-2,–,> 100 µM (inactive)
COC(=O)C[C@H]1C[C@@H]2c3cc(NC(=O)Nc4ccc(C(F)(F)F)cc4)ccc3O[C@@H]2[C@H](CO)O1,> 100 µM,> 100 µM (inactive)
Cc1cccc(NC(=O)c2c(C)nn(-c3ccccc3)c2Cl)c1,–,> 100 µM (inactive)
Cc1cccc(S(=O)(=O)Nc2ccc(-c3cn4ccccc4n3)cc2)c1,26.7 µM,> 100 µM (inactive)
O=S(=O)(NCc1ccc2c(c1)OCO2)c1ccc2c(c1)oc1ccccc12,40.8 µM,> 100 µM (inactive)
CC(=O)Oc1c(Cl)cc(N(C(C)=O)S(=O)(=O)c2ccccc2)c2ccccc12,47.2 µM,> 100 µM (inactive)
CCCn1c(=O)c2ccccc2n2c(SCCOc3ccc(OC)cc3)nnc12,–,> 100 µM (inactive)
Cc1ccccc1-n1ncc2c1CC(C)(C)CC2NC(=O)CCN1Cc2ccccc2C1=O (stereo not drawn),> 100 µM,> 100 µM (inactive)
CSc1ccc(CN(C)C(=O)C(c2ccccc2)c2ccccc2)cc1,> 100 µM,–
Cc1ccc(S(=O)(=O)NCc2c(-c3ccccc3)noc2C)cc1,–,> 100 µM (inactive)
CCN(CC)CCN(C(=O)c1ccc2c(c1)CCCC2)c1nc2ccc(F)cc2s1,46.3 µM,> 100 µM (inactive)
O=C(NCCc1ccc(Cl)cc1)c1ccc2nc[nH]c2c1,–,> 100 µM (inactive)
COc1ccc(CNS(=O)(=O)c2ccc3c(c2)NC(=O)C(C)S3)cc1 (stereo not drawn),–,> 100 µM (inactive)
N#Cc1cccc(-c2ccc3c(c2)[C@H]2[C@H](CCN2C(=O)c2ccccc2F)[C@H](CO)N3)c1,–,> 100 µM (inactive)
O=C(NCc1ccccc1)c1ccc(-c2ccccc2F)o1,28.8 µM,> 100 µM (inactive)
NC(=O)c1ccsc1NC(=O)COC(=O)Cc1ccc(F)cc1,> 100 µM,–
CCCCNC(=O)C[C@@H]1C[C@@]2(C(=O)OC)CCCCC=C2N(Cc2ccccc2)C1=O,> 100 µM,> 100 µM (inactive)
CCN(C(=O)c1ccnc(C(C)(C)C)c1)c1ccccc1,–,> 100 µM (inactive)
Cc1ccc(S(=O)(=O)Nc2ccccc2CNc2cccc(C)n2)cc1,> 100 µM,–
O=C(Cc1cccc(NC(=O)C2CCN(C(=O)C3CCCCC3)CC2)c1)Nc1cccc(C(=O)N2CCCC2)c1,> 100 µM,> 100 µM (inactive)

Compound,AC50 [1],AC50
COc1ccccc1C(=O)Nc1ccc2c(c1)nc1n2CCN(C2CCCCC2)C1,–,> 100 µM (inactive)
O=C(Nc1cccc(O)c1)c1cc(-c2ccccc2Cl)on1,–,> 100 µM (inactive)
COc1ccccc1NS(=O)(=O)c1cc(C(=O)Nc2ccc(S(=O)(=O)Nc3onc(C)c3C)cc2)ccc1C,–,> 100 µM (inactive)
CCOC(=O)C1CCCN(C(=O)c2csc(-c3ccc4c(c3)CCO4)n2)C1 (stereo not drawn),–,> 100 µM (inactive)
CCc1ccc(CN2CCCC(CNS(=O)(=O)c3ccc(OC)cc3)C2)cc1 (stereo not drawn),> 100 µM,–
CCCCCCCNC(=O)c1ccc(N2CCC3(CC2)OCCO3)c([N+](=O)[O-])c1,40.4 µM,–
O=c1[nH]c(C2CCCN(S(=O)(=O)c3ccccc3Cl)C2)nc2c1nnn2Cc1ccc2c(c1)OCCO2 (stereo not drawn),–,> 100 µM (inactive)
NS(=O)(=O)c1cc(C(=O)OCC(=O)Nc2ccccc2[N+](=O)[O-])ccc1Cl,> 100 µM,–
c1cc2cc(-c3c(-c4ccc5c(c4)OCO5)noc3-c3ccsc3)ccc2[nH]1,–,> 100 µM (inactive)
Cc1onc(-c2ccccc2Cl)c1C(=O)OCC(=O)c1ccccc1,> 100 µM,–
CC(=O)OC(COc1cccc(C)c1)Cn1cnc2ccccc21 (stereo not drawn),50.7 µM,> 100 µM (inactive)
COc1cc(C(N)=O)cc(Br)c1OCc1ccccc1,–,> 100 µM (inactive)
COc1ccc(CC(=O)Nc2nc(-c3cc(OC)ccc3OC)cs2)cc1,8.91 µM,> 100 µM (inactive)
O=C(CCCOc1ccc(Cl)cc1Cl)Nc1ccccc1C(=O)O,–,> 100 µM (inactive)
Cc1ccc(CNS(=O)(=O)c2ccc3c(c2)NC(=O)CS3)cc1,41 µM,> 100 µM (inactive)
O=C1c2cccc3cccc(c23)C(=O)N1CCCn1ccnc1,51.6 µM,> 100 µM (inactive)
O=C(Cc1cccc(NC(=O)C2CCCN(C(=O)CCc3ccccc3)C2)c1)Nc1cccc(C(=O)N2CCCC2)c1 (stereo not drawn),–,> 100 µM (inactive)
CCSc1nc2ccccc2c(=O)n1Cc1ccc(F)cc1,–,> 100 µM (inactive)
C[C@@H]1CN([C@@H](C)CO)C(=O)c2cc(NC(=O)C3CC3)ccc2O[C@H]1CN(C)C(=O)Nc1ccc(C(F)(F)F)cc1,–,> 100 µM (inactive)
C[C@]12C(=O)N(c3ccc(F)cc3)C(=O)N1[C@@H]1c3ccccc3OC[C@@H]1[C@H]2c1ccccc1,> 100 µM,–
O=C(CSCc1c(Cl)cccc1Cl)Nc1cccnc1,> 100 µM,> 100 µM (inactive)

Compound,AC50 [1],AC50
COc1cccc(C(=O)NC2CC3CCCC(C2)N3S(=O)(=O)c2ccccc2)c1 (stereo not drawn),41.4 µM,> 100 µM (inactive)
CCc1nn2cc(C(=O)c3cc(Cl)ccc3O)cnc2c1-c1ccc(F)cc1,> 100 µM,> 100 µM (inactive)
O=C(CCNC(=O)c1ccco1)Nc1cccc(Br)c1,> 100 µM,> 100 µM (inactive)
Nc1[nH]c(C(=O)c2ccccc2)c(-c2ccc3c(c2)OCO3)c1C(=O)NCCc1c[nH]c2ccccc12,> 100 µM,–
CCN(CC)S(=O)(=O)c1ccc(O)c(C(=O)OCC(=O)NC23CC4CC(CC(C4)C2)C3)c1,> 100 µM,–
O=C(Cc1ccc(Br)cc1)Nc1cccc(-c2cn3c(n2)SCC3)c1,> 100 µM,> 100 µM (inactive)
O=C(O)c1ccc2c(c1)N(Cc1ccc(F)cc1)C(=O)c1ccccc1S2,–,> 100 µM (inactive)
O=[N+]([O-])c1ccccc1CN1CCN(S(=O)(=O)c2ccccc2)CC1,–,> 100 µM (inactive)
CCN(c1ccccc1)S(=O)(=O)c1ccc(Cl)c(NC(=O)CSc2n[nH]c(N)n2)c1,> 100 µM,> 100 µM (inactive)
Cc1ccc(-n2cc(CNCCN3CCOC3=O)c(-c3ccc(F)cc3)n2)cc1,> 100 µM,–
COC(=O)CN1C(=S)N(c2ccc(Cl)cc2)C(=O)C1CC(=O)Nc1ccc(F)cc1 (stereo not drawn),–,> 100 µM (inactive)
CCN(CC)c1nc(Oc2ccc(C(=O)OC)cc2)nc(N2CCOCC2)n1,> 100 µM,–
COc1ccccc1CNC(=O)CN1C(=O)NC(c2ccccc2)(c2ccccc2)C1=O,–,> 100 µM (inactive)
CN1c2ccc(C#Cc3cccnc3)cc2[C@@H]2[C@@H](CCN2C(=O)c2cccc(F)c2)[C@H]1CO,–,> 100 µM (inactive)
CCNc1nc(N)c(C(=O)C23CC4CC(CC(C4)C2)C3)s1,> 100 µM,–
Cc1ccc(N(CC(O)Cn2nc(C)cc2C)S(=O)(=O)c2ccc3ccccc3c2)cc1 (stereo not drawn),43.1 µM,> 100 µM (inactive)
CCN(CC)S(=O)(=O)c1cccc(NC(=O)CNc2cccc(S(=O)(=O)N3CCCC3)c2)c1,–,> 100 µM (inactive)
O=C1C(c2ccccc2)c2ccccc2N1Cc1ccccc1 (stereo not drawn),–,> 100 µM (inactive)
CCc1ccc2[nH]c(C(=O)Nc3ccc4c(c3)OCO4)cc2c1,–,> 100 µM (inactive)
CN(c1ccccc1)S(=O)(=O)c1cccc(NC(=O)CCN2C(=O)C3CCCCC3C2=O)c1 (stereo not drawn),> 100 µM,> 100 µM (inactive)
